Source: patent publication US6126918A, “Screening assays to identify therapeutic agents for amyloidosis” (Imperial College Innovations Limited, priority 1993, dated 2000)
Like-named read-outs stand apart in the source and are kept apart here.

Experiments:
SAP [1] = target: T1, SAP (Homo sapiens, UniProt P02743); assay: Binding of DNA by SAP; details: unpublished observations
T1 construct: homopentamer, can form decamer; calcium-dependent ligand site
Text: SAP also binds polyanions such as heparan sulphate, dermatan sulphate and DNA [4] in the presence of calcium. […] There are several basic regions in SAP, for example Arg120, Arg77, His78, Lys79 and Arg57, which are on the same surface as the calcium and PE binding sites. It seems more likely that the phosphate backbone of DNA and the sulphated polysaccharides bind both at the calciums and at the basic sites, possibly on more than one subunit simultaneously. These extensive interactions probably account for the ability of SAP to displace from DNA the H1-type histones in chromatin [5]. The sequence differences in the basic regions and in the calcium binding region could explain the variable affinity for DNA shown by different pentraxins. Human CRP, for instance, only binds DNA at low, non-physiological ionic strength. […] Similar effects are observed for SAP binding to immobilised PE [unpublished observations]. As we can find no evidence for a second binding site for PE or MOβDG in the present experimental conditions, these effects must be mediated through inter-subunit interactions.

SAP [2] = target: T1, SAP; details: neutral solutions in the presence of calcium ions; reference [44]; cited from earlier work
[3] = system: amyloid fibrils of AA, AL and apoAI type; assay: Proteinase digestion of ex vivo amyloid fibrils (AA, AL, apoAI) in vitro; format: biochemical, human; details: for Effect on fibril digestion by proteinases: protein added to incubation mixtures, 37° C.
[4] = target: T2, SAP binding to AA type amyloid fibrils (Homo sapiens, UniProt P02743); assay: Inhibition of SAP binding to amyloid fibrils (125I-SAP); details: concentrations above about 2 mM in the final incubation mixture
T2 construct: isolated at greater than 99% purity from pooled human ascites and pleural effusion fluids; from tissue; host or cells: SAP from pooled human ascites and pleural effusion fluids; fibrils from patients' organs such as spleen
Procedure: Amyloid fibrils are isolated from the organs, such as the spleen, obtained post mortem from patients with amyloidosis of AA or AL type, using the water extraction method of Pras et al. This method is modified in that the initial saline homogenizations are conducted using Tris buffered saline containing 10 mM EDTA to ensure complete dissociation of all endogenous SAP [56]. The fibril-rich water extract is mixed with Tris buffered saline containing calcium chloride to bring the final salt concentration to 138 m NaCl, 10 mM Tris, 2 mM CaCl2, pH 8.0, and this is then centrifuged at 1500 g for 5 minutes to sediment the fibrils. These are then resuspended in Tris saline calcium buffer, pH 8.0, at the same concentration as above (TC buffer), so as to provide a suitable suspension, for example, A280 =0.255, A320 =0.132, and this is stored at 4° C. […] Agents to be tested are dissolved at a concentration of about 10 mM in TC, or in 1:10 DMSO in water or TC. If they are active in inhibiting SAP binding they are tested at a range of lower concentrations to determine the minimal inhibitory dose.
For the assay itself 10 μl of labelled SAP is mixed with 50 μl of amyloid fibril suspension and 40 μl of the test substance and incubated, with mixing, for 60 minutes at room temperature. […] The fibrils are washed with TC containing 1% w/v BSA and the radioactive SAP bound is measured. […]

[5] = system: Alzheimer's disease β-protein fibrils; assay: Pronase digestion of Alzheimer's disease β-protein fibrils, SDS-PAGE; format: biochemical; details: for Digestion of β-protein: SAP 10 μg/ml, pronase 1 μg/ml, 1 hour at 37° C.
Procedure: Alzheimer's disease β-protein, prepared as a synthetic peptide containing residues 1-40 was obtained from California Peptide Research, and was dissolved in pure water at 4 mg/ml, that is 1 mM. Some was kept at 4° C. ("fresh") and some was aged by incubation at 37° C. for 7 days. It is known that fibrils form very slowly in the cold but that "ageing" is associated with marked amyloid fibril formation, and this was confirmed in the present case by Congo red staining and by direct electron microscopy.
(a) β-protein solutions obtained as described above were diluted to 0.2 mg/ml in TC immediately before use. Highly purified human SAP in solution in 138 mM NaCl, 10 mM Tris, pH 8.0 (TN) was diluted in TN to 0.1 mg/ml, 0.5 mg/ml and 2.5 mg/ml Pronase from S. griseus was obtained from Boehringer Mannheim and was freshly prepared at 0.04 and 0.004 mg/ml in TC just before use.
Aliquots, 50 μl, of aged or fresh β-protein were mixed with 20 μl volumes of TN alone or SAP at the different concentrations shown in FIG. 5 and with 5 μl of 10 mM CaCl2, and then incubated with shaking at 37° C. for 1 hour. TC alone or pronase in TC at 0.04 or 0.004 mg/ml were added in a volume of 25 μl and incubation continued for a further 1 hour at 37° C. Digestion was then stopped by addition of an equal volume of reducing SDS-PAGE sample buffer (20 mM Tris pH 8.0, 2 mM EDTA, 5% w/v SDS, 10% w/v 2-mercaptoethanol, 0.05% w/v bromophenol blue, 20% w/v glycerol) and boiling for 10 minutes. These samples were finally analysed in reduced SDS homogeneous 15% PAGE, stained with Brilliant blue R350. The proportion of the β-protein present in each track was estimated by scanning densitometry with reference to the no pronase control which was taken as 100%. The proportion digested was calculated by subtraction and plotted against the SAP concentration.
(d) Abrogation of protection by MOβDG: β-protein fibrils at 100 μg/ml were incubated for 1 hour at 37° C. with pronase at 1 μg/ml, in the presence or absence of SAP and with or without different concentrations of MOβDG. The extent of digestion of the β-protein was then estimated by SDS-PAGE analysis.

AA amyloid fibrils = assay: Trypsin or chymotrypsin digestion of AA amyloid fibrils, SDS-PAGE quantification of AA protein band; format: biochemical, human; details: 6 hours at 37° C.
Procedure: (b) AA amyloid fibrils obtained ex vivo were incubated for 6 hours at 37° C. with trypsin or chymotrypsin at a substrate:enzyme ratio of 10:1 in the presence or absence of SAP and with or without MOβDG, according to the general protocol given above. The incubation mixtures were then analysed by Coomassie blue stained SDS-PAGE with quantification of the AA protein band. Intensity of this band after incubation without trypsin was taken as 100%.

SAP [6] = target: T1, SAP; assay: Calcium-dependent aggregation of SAP in neutral solution; details: neutral solutions in the presence of calcium ions; unpublished observations
Text: SAP rapidly aggregates in neutral solutions in the presence of calcium ions presumably due to intermolecular interactions involving the surface of the decamer with the exposed calcium binding site. […] Similarly they compete for the calcium site with Glu167 which is an important lattice contact in the pentamer crystals.

T1 sequence (P02743 20-223): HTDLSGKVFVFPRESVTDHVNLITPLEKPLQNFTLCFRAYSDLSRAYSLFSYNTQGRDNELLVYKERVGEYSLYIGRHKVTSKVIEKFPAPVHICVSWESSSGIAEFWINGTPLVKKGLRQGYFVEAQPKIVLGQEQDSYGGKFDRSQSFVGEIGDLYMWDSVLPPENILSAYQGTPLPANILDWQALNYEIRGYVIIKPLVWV
T2 sequence (P02743 20-223): as above

CO[C@@H]1O[C@@H]2CO[C@@](C)(C(=O)O)O[C@@H]2[C@H](O)[C@H]1O [MOβDG, methyl 4,6-O-(1-carboxyethylidene)-β-D-galactopyranoside]
Effect on binding of DNA by SAP (SAP [1]): enhance the binding of DNA by SAP and compete with the interaction at high concentration | Inhibition of SAP aggregation (SAP [2]): can be inhibited | Protective effect of SAP when MOβDG was included ([3]; MOβDG included in the incubation mixtures with SAP): completely abrogated | Effect on SAP binding to amyloid fibrils [4]: reduces binding to background levels | Digestion of β-protein ([5]; MOβDG 1.3 mM): 75% | Digestion of β-protein ([5]; MOβDG 6.7 mM): 85% | Digestion of β-protein ([5]; MOβDG 33.3 mM): 90% | Protection by SAP in the presence of MOβDG ([5]; β-protein amyloid fibrils with SAP): completely abrogated | % AA protein remaining (AA amyloid fibrils; Chymotrypsin, SAP 50 μg/ml plus MOβDG 1 mM): 10% | % AA protein remaining (AA amyloid fibrils; Trypsin, SAP 50 μg/ml plus MOβDG 1 mM): 5%

NCCOP(=O)(O)O [PE, phosphoethanolamine]
Effect on binding of DNA by SAP (SAP [1]): enhance the binding of DNA by SAP and compete with the interaction at high concentration | Inhibition of SAP aggregation (SAP [6]): can be inhibited

CRP: C-reactive protein, control protein that does not bind to amyloid fibrils
Effect on fibril digestion by proteinases [3]: had no effect on their digestion

SAP: Serum amyloid P component, a normal human plasma protein; highly purified human SAP
Effect on fibril digestion by proteinases [3]: greatly reduced fibril digestion | Digestion of β-protein ([5]; MOβDG 0 mM): 60% | Protection of β-protein amyloid fibrils from proteolysis ([5]; fibrils produced in vitro from synthetic β-protein): protected the β-protein amyloid fibrils from proteolysis | % AA protein remaining (AA amyloid fibrils; Chymotrypsin, SAP 10 μg/ml, no MOβDG): 20% | % AA protein remaining (AA amyloid fibrils; Chymotrypsin, SAP 50 μg/ml, no MOβDG): 60% | % AA protein remaining (AA amyloid fibrils; Trypsin, SAP 10 μg/ml, no MOβDG): 20% | % AA protein remaining (AA amyloid fibrils; Trypsin, SAP 50 μg/ml, no MOβDG): 50%
